pEC50, pIC50: −log10 of the molar value. Values joined by “and” are separate entries in the source; they are usually repeats but may differ in a detail not shown here. Equal entries are not always repeated. Where two headings read alike, the source gives them in different places.
What was measured:
[1] = target: T1, GHSR-1a (HEK293/GHSR1a cell line) (Homo sapiens, UniProt Q92847); experiment: Ghrelin antagonist potency (IC50) with calcium FLIPR assay, ghrelin 10 nM; assay type: cell-based
T1 construct: expressed in transfected cells; host or cells: HEK293/GHSR1a cell line
T1 sequence (Q92847 whole entry): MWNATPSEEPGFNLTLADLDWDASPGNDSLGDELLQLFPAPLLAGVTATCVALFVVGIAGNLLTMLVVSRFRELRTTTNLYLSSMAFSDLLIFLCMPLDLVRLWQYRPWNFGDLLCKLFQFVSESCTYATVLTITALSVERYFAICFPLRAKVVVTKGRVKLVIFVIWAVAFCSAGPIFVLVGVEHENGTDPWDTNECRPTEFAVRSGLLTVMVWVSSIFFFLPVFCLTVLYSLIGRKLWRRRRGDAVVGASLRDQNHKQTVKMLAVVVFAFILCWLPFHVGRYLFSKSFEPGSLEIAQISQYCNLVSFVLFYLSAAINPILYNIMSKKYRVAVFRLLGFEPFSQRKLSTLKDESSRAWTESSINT
Method in brief: (§1)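 Calcium flux was followed 2 min by FLIPR in dye-loaded HEK293/GHSR1a cells. For antagonist IC50, compound and ghrelin (10 nM) were co-added at t=20 sec and inhibition of the ghrelin signal fitted; for agonist EC50, compound alone was added at t=20 sec and dose-response fitted.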

[2] = target: T2, recombinant human ghrelin receptor (HEK293/GRLN) (Homo sapiens, UniProt Q92847); experiment: Ghrelin inverse agonist potency (EC50) with IP-1 (IP-One HTRF) assay; assay type: cell-based; settings: IP-1 assay
T2 construct: expressed in transfected cells
T2 sequence (Q92847 whole entry): as above
Method in brief: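 IP-1 accumulation was measured by HTRF (IP1-d2/Tb-cryptate, 620/665 nm read after 1 hour at room temperature) following 1 hour of compound treatment at 37° C. Cells were HEK293 stably expressing human ghrelin receptor, plated a day earlier on Matrigel. Inverse agonist potency was reported as EC50.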

[3] = Metabolic stability in human liver microsomes; assay type: in vitro ADME
Method: (§2) Metabolic Stability Study
(§3) The metabolic stability of compounds in human, dog, rat and mouse liver microsomes was performed according the experimental conditions reported below:
(§4) • a) Prepare the following 5 stock solutions: • 1. Test compound stock solutions: dilute 10 mM solution of dextromethorphan (Dtr) in DMSO, 10 mM solution of diphenhydramine (DPA) in DMSO, 10 mM solution of omeprazole (Ome) in DMSO, 10 mM solution of verapamil (Ver) in DMSO, and 10 mM of an inverse agonist compound in DMSO to 0.25 mM solution each with acetonitrile/water (70/30). • 2. Buffer: 100 mM potassium phosphate Buffer (PBS) at pH 7.4 • 3. Liver microsomes (20 mg/ml): Thaw in 37° C. water bath quickly • 4. 2000 μL: of NADPH regenerating system (1.3 mM). Place this system on ice before use:
(§5) • 5. […] The test compound concentration in the wells, measured by LC-MS/MS, represents the concentration at time=0. • f) To determine the test compound concentration when t≠0, pre-incubate the NADPH regenerating system and the incubation plate containing the remaining 320 μL of incubation mixture (microsomes protein and test compound) for 5 minutes at 37° C. • g) Start the incubation reaction by adding 80 μL NADPH regenerating system to each well containing the remaining 320 μL incubation mixture. • h) After 10 min., 30 min., and 90 min. of incubation at 37° C., transfer 100 μL of the incubation mixture (microsomes protein, test compound, and NADPH) into the wells of a stop plate pre-filled with 300 μL of the cold quench solution. Shake well. • i) Centrifuge the stop plate at 5000×g for 10 minutes. Collect and dilute the supernatant 3 times with distilled water. Sample and analyze the test compound concentration for all the wells by LC-MS/MS. Animal PK Studies via i.v. (intravenous), p.o. (orally) and s.c. (subcutaneous) administrations

[4] = Metabolic stability in mouse liver microsomes; assay type: in vitro ADME
Method: as §2, §3, §4, §5

[5] = target: T1, GHSR-1a (HEK293/GHSR1a cell line); experiment: Ghrelin agonist potency (EC50) with calcium FLIPR assay; assay type: cell-based; settings: ghrelin agonist potency, read-out: Activity EC50/EMax
Method in brief: as §1

[6] = ghrelin antagonist potency, read-out: IC50 (Activity)
[7] = inverse agonist potency, read-out: EC50 (Activity)
[8] = ghrelin antagonist potency, read-out: Activity IC50
[9] = ghrelin inverse agonist potency, read-out: Activity EC50

SMILES | pIC50 [1, 6] | pEC50 [2, 7] | Metabolic Stability Study H = human [3] | Metabolic Stability Study M = mouse [4] | pIC50 ([1]; HEK293/GHSR1a, ghrelin 10 nM, read-out: Activity IC50 (ghrelin antagonist potency)) | pIC50 [1, 8] | pEC50 [2, 9] | pEC50 [5]
C[C@H](NC(=O)Nc1ccc(S(=O)(=O)N(C)c2ccc(CC(C)(C)N)cc2)cc1)c1cccc(Cl)c1Cl.Cl [H0971, (S)-N-(4-(2-amino-2-methylpropyl)phenyl)-4-(3-(1-(2,3-dichlorophenyl)ethyl)ureido)-N-methylbenzenesulfonamide] | 6.38 | 6.87 | 31.9 µL/min/mg | 24.8 µL/min/mg | – | – | – | –
CCN1Cc2ccc(C(C)S(=O)(=O)c3ccc(NC(=O)NC(C)c4ccccc4)cc3)cc2C1 (stereo not shown) [H1234, 1-(4-((1-(2-ethylisoindolin-5-yl)ethyl)sulfonyl)phenyl)-3-(1-phenylethyl)urea] | 7.37 | 7.81 | 149.8 µL/min/mg | 122.7 µL/min/mg | – | – | – | –
O=C(NCc1ccccc1)Nc1ccc2c(c1)CC(c1ccc3c(c1)CNC3)S2(=O)=O (stereo not shown) [H1271, 1-benzyl-3-(2-(isoindolin-5-yl)-1,1-dioxido-2,3-dihydrobenzo[b]thiophen-5-yl)urea] | – | – | H < 10 M < 10 R = not reported D = not reported μL/min/mg | H < 10 M < 10 R = not reported D = not reported μL/min/mg | 8.30 | – | – | –
CC(NC(=O)N(O)c1ccc(S(=O)(=O)Nc2ccc3c(c2)CNC3)cc1)c1cccc2ccccc12 (stereo not shown) [H1166, 4-(1-hydroxy-3-(1-(naphthalen-1-yl)ethyl)ureido)-N-(isoindolin-5-yl)benzenesulfonamide] | 8.05 | 8.15 | 19.9 µL/min/mg | 14.5 µL/min/mg | – | – | – | –
Cc1oc(=O)oc1CN1CCc2cc(NS(=O)(=O)c3ccc(NC(=O)N[C@@H](C)c4cccc(Cl)c4Cl)cc3)ccc2C1 [H1068, (S)-4-(3-(1-(2,3-dichlorophenyl)ethyl)ureido)-N-(2-((5-methyl-2-oxo-1,3-dioxol-4-yl)methyl)-1,2,3,4-tetrahydroisoquinolin-6-yl)benzenesulfonamide] | 7.58 | 8.08 | 199.7 µL/min/mg | 196.4 µL/min/mg | – | – | – | –
CCC(NC(=O)Nc1ccc(S(=O)(=O)Cc2ccc3c(c2)CN(C)C3)cc1)c1ccccc1 (stereo not shown) [H1235, 1-(4-(((2-methylisoindolin-5-yl)methyl)sulfonyl)phenyl)-3-(1-phenylpropyl)urea] | 7.49 | 8.21 | 102.4 µL/min/mg | 87.1 µL/min/mg | – | – | – | –
Cc1oc(=O)oc1CN1CCc2cc(CS(=O)(=O)c3ccc(NC(=O)N[C@@H](C)c4cccc(Cl)c4Cl)cc3)ccc2C1 [H1067, (S)-1-(1-(2,3-dichlorophenyl)ethyl)-3-(4-(((2-((5-methyl-2-oxo-1,3-dioxol-4-yl)methyl)-1,2,3,4-tetrahydroisoquinolin-6-yl)methyl)sulfonyl)phenyl)urea] | 7.85 | 8.35 | 326.2 µL/min/mg | 289 µL/min/mg | – | – | – | –
C[C@H](NC(=O)Nc1ccc(S(=O)(=O)Nc2cnc(N)nc2)cc1)c1cccc(Cl)c1Cl [H1108] | 6.37 | 6.93 | 38.7 µL/min/mg | 47.5 µL/min/mg | – | – | – | –
C[C@H](NC(=O)Nc1ccc(S(=O)(=O)Nc2ccc(N)cn2)cc1)c1cccc(Cl)c1Cl.Cl [H1127, (S)-N-(5-aminopyridin-2-yl)-4-(3-(1-(2,3-dichlorophenyl)ethyl)ureido) benzenesulfonamide] | 6.06 | 7.02 | 41 µL/min/mg | 59.5 µL/min/mg | – | – | – | –
CC(NC(=O)Nc1ccc(S(=O)(=O)Nc2ccc3c(c2)CNC3)cc1)c1ccccc1.Cl (stereo not shown) [H1156, N-(isoindolin-5-yl)-4-(3-(1-phenylethyl)ureido) benzenesulfonamide] | 7.99 | 8.37 | 18.1 µL/min/mg | 12.9 µL/min/mg | – | – | – | –
C[C@H](NC(=O)Nc1ccc(S(=O)(=O)Nc2ccnc(N)n2)cc1)c1cccc(Cl)c1Cl [H1125, (S)-N-(2-aminopyrimidin-4-yl)-4-(3-(1-(2,3-dichlorophenyl)ethyl)ureido) benzenesulfonamide] | 6.05 | 7.03 | 10.7 µL/min/mg | 14.9 µL/min/mg | – | – | – | –
CCN1CCc2cc(NS(=O)(=O)c3ccc(NC(=O)N[C@@H](C)c4ccc(OC)c(Cl)c4Cl)cc3)ccc2C1 [H1018, (S)-4-(3-(1-(2,3-dichloro-4-methoxyphenyl)ethyl)ureido)-N-(2-ethyl-1,2,3,4-tetrahydroisoquinolin-6-yl)benzenesulfonamide] | 7.00 | 7.86 | < 10 µL/min/mg | 46.3 µL/min/mg | – | – | – | –
Cl.O=C(NCc1ccccc1)Nc1ccc(S(=O)(=O)Cc2ccc3c(c2)CNC3)cc1 [H1179, 1-benzyl-3-(4-((isoindolin-5-ylmethyl)sulfonyl)phenyl)urea] | 6.84 | 7.43 | 14.9 µL/min/mg | < 10 µL/min/mg | – | – | – | –
COc1ccc(C(C)NC(=O)Nc2ccc(S(=O)(=O)Cc3ccc4c(c3)CNC4)cc2)c2ccccc12 (stereo not shown) [H1154, 1-(4-((isoindolin-5-ylmethyl)sulfonyl)phenyl)-3-(1-(4-methoxynaphthalen-1-yl)ethyl)urea] | 6.90 | 7.53 and 7.57 | 19.2 µL/min/mg | 22.9 µL/min/mg | – | – | – | –
CC(NC(=O)Nc1ccc(S(=O)(=O)Cc2ccc3c(c2)CN(Cc2ccccc2)C3)cc1)c1ccccc1 (stereo not shown) [H1219, 1-(4-(((2-benzylisoindolin-5-yl)methyl)sulfonyl)phenyl)-3-(1-phenylethyl)urea] | 8.11 | 6.79 | H > 500 M > 500 R = not reported D = not reported μL/min/mg | H > 500 M > 500 R = not reported D = not reported μL/min/mg | – | – | – | –
CN1Cc2ccc(CS(=O)(=O)c3ccc(NC(=O)NC(c4ccccc4)C(F)(F)F)cc3)cc2C1 (stereo not shown) [H1227, 1-(4-(((2-methylisoindolin-5-yl)methyl)sulfonyl)phenyl)-3-(2,2,2-trifluoro-1-phenylethyl)urea] | 7.42 | 6.76 | 99.4 µL/min/mg | 79.9 µL/min/mg | – | – | – | –
C[C@H](NC(=O)Nc1ccc(S(=O)(=O)Nc2ccc(CC(C)(C)O)cc2)cc1)c1cccc(Cl)c1Cl [H1076, (S)-4-(3-(1-(2,3-dichlorophenyl)ethyl)ureido)-N-(4-(2-hydroxy-2-methylpropyl)phenyl) benzenesulfonamide] | 6.29 | 7.24 | 91.4 µL/min/mg | 73.9 µL/min/mg | – | – | – | –
COc1cc(S(=O)(=O)Cc2ccc3c(c2)CNC3)ccc1NC(=O)N(O)C(C)c1cccc(Cl)c1Cl (stereo not shown) [H1495, 1-(1-(2,3-dichlorophenyl)ethyl)-1-hydroxy-3-(4-((isoindolin-5-ylmethyl)sulfonyl)-2-methoxyphenyl)urea] | – | – | H = 21.1 μL/min/mg | – | – | 8.67 | 8.92 | < 4.52
CC(c1ccccc1F)N(O)C(=O)Nc1ccc(S(=O)(=O)Cc2ccc3c(c2)CNC3)cc1.Cl (stereo not shown) [H1490, 1-(1-(2-fluorophenyl)ethyl)-1-hydroxy-3-(4-((isoindolin-5-ylmethyl)sulfonyl)phenyl)urea] | – | – | H = 12.8 μL/min/mg | – | – | 8.27 | 8.44 | < 4.52
CNC(=O)c1cc(S(=O)(=O)Cc2ccc3c(c2)CNC3)ccc1NC(=O)NC(C)c1ccccc1 (stereo not shown) [H1499, 5-((isoindolin-5-ylmethyl)sulfonyl)-N-methyl-2-(3-(1-phenylethyl)ureido)benzamide] | – | – | H = 27.1 μL/min/mg | – | – | 7.42 | 8.15 | < 4.52

Source: patent publication US10501479B2, “Benzenesulfonyl-asymmetric ureas and medical uses thereof” (HELSINN HEALTHCARE SA, priority 2016, dated 2019)
